Results published in ChEMBL document CHEMBL4118148, “Design, synthesis and cardiovascular evaluation of some aminoisopropanoloxy derivatives of xanthone” (Bioorg Med Chem, 2018).

Legend:
[1] = molecular target: T1, Adrenergic receptor alpha-1 (Rattus norvegicus, UniProt P15823+P23944+P43140); assay: Displacement of [3H][…]prazosin from adrenergic alpha1 receptor in Wistar rat cortex incubated for 30 mins by microbeta liquid scintillation counting analysis
T1 sequence (P15823 whole entry): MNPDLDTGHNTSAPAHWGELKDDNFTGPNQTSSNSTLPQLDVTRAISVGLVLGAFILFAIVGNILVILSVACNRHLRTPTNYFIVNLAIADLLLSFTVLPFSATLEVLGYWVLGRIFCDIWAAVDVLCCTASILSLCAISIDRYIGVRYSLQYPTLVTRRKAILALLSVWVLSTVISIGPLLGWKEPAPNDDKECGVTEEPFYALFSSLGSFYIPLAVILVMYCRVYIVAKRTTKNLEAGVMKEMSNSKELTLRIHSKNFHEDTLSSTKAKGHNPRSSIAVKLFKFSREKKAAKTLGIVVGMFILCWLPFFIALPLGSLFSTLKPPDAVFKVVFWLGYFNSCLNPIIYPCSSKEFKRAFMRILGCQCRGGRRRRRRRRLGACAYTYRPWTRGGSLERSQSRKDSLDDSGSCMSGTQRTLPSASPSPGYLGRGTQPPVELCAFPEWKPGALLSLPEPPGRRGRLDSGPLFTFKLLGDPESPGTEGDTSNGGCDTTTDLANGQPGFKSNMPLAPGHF
T1 sequence (P23944 whole entry): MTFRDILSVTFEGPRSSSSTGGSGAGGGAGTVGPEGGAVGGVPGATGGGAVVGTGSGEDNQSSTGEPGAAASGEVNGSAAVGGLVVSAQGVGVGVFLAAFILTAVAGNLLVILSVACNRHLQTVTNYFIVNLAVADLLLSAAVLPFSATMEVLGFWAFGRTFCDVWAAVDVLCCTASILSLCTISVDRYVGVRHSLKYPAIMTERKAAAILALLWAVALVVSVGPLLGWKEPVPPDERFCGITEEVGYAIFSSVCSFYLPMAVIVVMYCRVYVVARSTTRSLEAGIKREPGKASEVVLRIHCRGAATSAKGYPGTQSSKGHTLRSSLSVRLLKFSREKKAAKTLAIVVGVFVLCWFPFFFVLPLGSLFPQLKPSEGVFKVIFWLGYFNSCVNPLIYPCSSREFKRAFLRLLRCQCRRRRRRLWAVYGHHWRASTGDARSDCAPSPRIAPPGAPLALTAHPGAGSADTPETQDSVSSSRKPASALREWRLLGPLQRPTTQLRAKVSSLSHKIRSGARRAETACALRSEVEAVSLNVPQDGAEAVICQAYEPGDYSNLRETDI
T1 sequence (P43140 whole entry): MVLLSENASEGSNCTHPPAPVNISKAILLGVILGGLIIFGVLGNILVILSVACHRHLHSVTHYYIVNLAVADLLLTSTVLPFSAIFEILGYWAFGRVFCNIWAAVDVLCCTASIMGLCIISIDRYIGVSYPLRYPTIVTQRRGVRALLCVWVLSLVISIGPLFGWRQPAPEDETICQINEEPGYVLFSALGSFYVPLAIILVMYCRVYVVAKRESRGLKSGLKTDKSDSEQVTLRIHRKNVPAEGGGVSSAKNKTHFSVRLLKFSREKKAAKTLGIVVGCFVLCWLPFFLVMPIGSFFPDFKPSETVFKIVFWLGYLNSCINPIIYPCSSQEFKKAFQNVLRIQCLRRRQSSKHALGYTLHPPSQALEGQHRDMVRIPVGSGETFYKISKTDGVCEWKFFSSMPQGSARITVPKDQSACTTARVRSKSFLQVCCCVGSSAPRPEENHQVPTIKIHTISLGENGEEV

Rattus norvegicus [2] = assay: Hypotensive activity in normotensive Wistar rat assessed as systolic blood pressure at 5 mg/kg, iv measured after 10 mins (reference value: 119.2 to 148.6 mmHg); type: functional
Rattus norvegicus [3] = assay: Hypotensive activity in normotensive Wistar rat assessed as diastolic blood pressure at 5 mg/kg, iv measured after 10 mins (reference value: 86.5 to 119.4 mmHg); type: functional
Rattus norvegicus [4] = assay: Hypotensive activity in normotensive Wistar rat assessed as systolic blood pressure at 5 mg/kg, iv measured after 20 mins (reference value: 119.2 to 148.6 mmHg); type: functional
Rattus norvegicus [5] = assay: Hypotensive activity in normotensive Wistar rat assessed as diastolic blood pressure at 5 mg/kg, iv measured after 20 mins (reference value: 86.5 to 119.4 mmHg); type: functional
Rattus norvegicus [6] = assay: Hypotensive activity in normotensive Wistar rat assessed as systolic blood pressure at 5 mg/kg, iv measured after 30 mins (reference value: 119.2 to 148.6 mmHg); type: functional
Rattus norvegicus [7] = assay: Hypotensive activity in normotensive Wistar rat assessed as systolic blood pressure at 5 mg/kg, iv measured after 60 mins (reference value: 119.2 to 148.6 mmHg); type: functional
Rattus norvegicus [8] = assay: Hypotensive activity in normotensive Wistar rat assessed as diastolic blood pressure at 5 mg/kg, iv measured after 60 mins (reference value: 86.5 to 119.4 mmHg); type: functional
Rattus norvegicus [9] = assay: Cardiotoxicity in Wistar rat assessed as effect on heart rate at 5 mg/kg, iv measured after 1 min (reference value: 323 to 374.5 bpm); type: toxicity, organism-based; conditions: in vivo
Rattus norvegicus [10] = assay: Cardiotoxicity in Wistar rat assessed as effect on QRS interval time at 5 mg/kg, iv measured after 1 min (reference value: 16.7 to 20.7 ms); type: toxicity, organism-based; conditions: in vivo
Rattus norvegicus [11] = assay: Cardiotoxicity in Wistar rat assessed as effect on QT interval time at 5 mg/kg, iv measured after 1 min (reference value: 57.7 to 61 ms); type: toxicity, organism-based; conditions: in vivo
Rattus norvegicus [12] = assay: Cardiotoxicity in Wistar rat assessed as effect on QTC interval time at 5 mg/kg, iv measured after 1 min (reference value: 136.7 to 146.2 ms); type: toxicity, organism-based; conditions: in vivo
Rattus norvegicus [13] = assay: Cardiotoxicity in Wistar rat assessed as effect on heart rate at 5 mg/kg, iv measured after 5 mins (reference value: 323 to 374.5 bpm); type: toxicity, organism-based; conditions: in vivo
Rattus norvegicus [14] = assay: Cardiotoxicity in Wistar rat assessed as effect on QRS interval time at 5 mg/kg, iv measured after 5 mins (reference value: 16.7 to 20.7 ms); type: toxicity, organism-based; conditions: in vivo
Rattus norvegicus [15] = assay: Cardiotoxicity in Wistar rat assessed as effect on QT interval time at 5 mg/kg, iv measured after 5 mins (reference value: 57.7 to 61 ms); type: toxicity, organism-based; conditions: in vivo
Rattus norvegicus [16] = assay: Cardiotoxicity in Wistar rat assessed as effect on QTC interval time at 5 mg/kg, iv measured after 5 mins (reference value: 136.7 to 146.2 ms); type: toxicity, organism-based; conditions: in vivo
Rattus norvegicus [17] = assay: Cardiotoxicity in Wistar rat assessed as effect on heart rate at 5 mg/kg, iv measured after 15 mins (reference value: 323 to 374.5 bpm); type: toxicity, organism-based; conditions: in vivo, 0.25 h
Rattus norvegicus [18] = assay: Cardiotoxicity in Wistar rat assessed as effect on QT interval time at 5 mg/kg, iv measured after 15 mins (reference value: 57.7 to 61 ms); type: toxicity, organism-based; conditions: in vivo, 0.25 h
Rattus norvegicus [19] = assay: Cardiotoxicity in Wistar rat assessed as effect on QTC interval time at 5 mg/kg, iv measured after 15 mins (reference value: 136.7 to 146.2 ms); type: toxicity, organism-based; conditions: in vivo, 0.25 h

SMILES | IC50 [1] | Activity (Rattus norvegicus [2]) | Activity (Rattus norvegicus [3]) | Activity (Rattus norvegicus [4]) | Activity (Rattus norvegicus [5]) | Activity (Rattus norvegicus [6]) | Activity (Rattus norvegicus [7]) | Activity (Rattus norvegicus [8]) | Activity (Rattus norvegicus [9]) | Time (Rattus norvegicus [10]) | Time (Rattus norvegicus [11]) | Time (Rattus norvegicus [12]) | Activity (Rattus norvegicus [13]) | Time (Rattus norvegicus [14]) | Time (Rattus norvegicus [15]) | Time (Rattus norvegicus [16]) | Activity (Rattus norvegicus [17]) | Time (Rattus norvegicus [18]) | Time (Rattus norvegicus [19]) | Ki [1]
Cl.O=c1c2ccccc2oc2c(OCC(O)CN3CCN(c4ccccn4)CC3)cccc12 (racemic) | 171 nM | 131.4 mmHg | 106 mmHg | 129.8 mmHg | 102.6 mmHg | 126.6 mmHg | 126.4 mmHg | 96.6 mmHg | 368.2 bpm | 18.5 ms | 58.7 ms | 145.4 ms | 356 bpm | 18 ms | 59.5 ms | 144.8 ms | 343 bpm | 60.2 ms | 144 ms | –
COc1ccccc1CCNCC(O)COc1cccc2c(=O)c3ccccc3oc12.Cl (racemic) | 349.8 nM | 133.4 mmHg | 101.8 mmHg | 128.2 mmHg | 98.8 mmHg | 126 mmHg | 117 mmHg | 89.6 mmHg | 356 bpm | 18 ms | 60.5 ms | 149.3 ms | 336 bpm | 19 ms | 61 ms | 148.2 ms | 390.5 bpm | 60 ms | 148.5 ms | 4676 nM
CC(C)(C)NCC(O)COc1cccc2c(=O)c3ccccc3oc12.Cl (racemic) | – | – | – | – | – | – | – | – | – | – | – | – | – | – | – | – | – | – | – | 814 nM
COc1ccccc1CNCC(O)COc1cccc2c(=O)c3ccccc3oc12.Cl (racemic) | 1870 nM | 147.7 mmHg | 107 mmHg | 133 mmHg | 100.6 mmHg | 126 mmHg | 125.3 mmHg | 94.3 mmHg | 246 bpm | 22 ms | 65.5 ms | 151.4 ms | 243.7 bpm | 22.7 ms | 64.7 ms | 129.8 ms | 265 bpm | 66.7 ms | 139.3 ms | –
COc1ccc(CCNCC(O)COc2cccc3c(=O)c4ccccc4oc23)cc1OC.Cl (racemic) | – | 135.6 mmHg | 105 mmHg | 127 mmHg | 97.4 mmHg | 128 mmHg | 129.8 mmHg | 98.6 mmHg | 262.7 bpm | 22.8 ms | 61.3 ms | 128.1 ms | 254.7 bpm | 22.7 ms | 66.7 ms | 138.4 ms | 265.7 bpm | 63.3 ms | 132.7 ms | 274 nM
COc1ccccc1OCCNCC(O)COc1cccc2c(=O)c3ccccc3oc12.Cl (racemic) | 109.5 nM | 106.5 mmHg | 73 mmHg | 97.7 mmHg | 71.5 mmHg | 94.5 mmHg | 106.2 mmHg | 80 mmHg | 307 bpm | 19 ms | 70 ms | 157.2 ms | 296 bpm | 19.3 ms | 67.3 ms | 148.3 ms | 308.7 bpm | 63.3 ms | 131.1 ms | 875.5 nM
Cl.O=c1c2ccccc2oc2cc(OCC(O)CN3CCN(c4ccccn4)CC3)ccc12 (racemic) | 355.6 nM | 110.3 mmHg | 80.5 mmHg | 108.8 mmHg | 80.3 mmHg | 108.7 mmHg | 102.5 mmHg | 74.7 mmHg | 340.7 bpm | 18.7 ms | 59 ms | 140.2 ms | 313 bpm | 20 ms | 58.3 ms | 133.3 ms | 295.3 bpm | 59 ms | 133.9 ms | –
